# Results: US12296053B2, “Nanomaterials comprising triols” (Beam Therapeutics Inc., priority 2022, dated 2025)
# Legend:
# [1] = Encapsulation efficiency of LNP preparations (Ribogreen assay; Qubit, unlysed and lysed LNPs); format: physicochemical; settings: LNP preparation with the ionizable lipid, ABE mRNA:sgRNA 1:1, except 7-1, 7-2, 7-6, 7-10 (unlysed and lysed LNPs, Qubit)
# Protocol: (§1) Lipid nanoparticle components were dissolved in 100% ethanol at specified lipid component molar ratios. mRNA encoding an adenine base editor and a chemically-modified sgRNA was dissolved at a mass ratio of 1:1 in 50 mM citrate, pH 4.0, resulting in a concentration of NA cargo of approximately 0.1 mg/mL.
# (§2) LNP preparations were formulated with molar ratios of 47.5% Ionizable Lipid: 40% Cholesterol: 2.5% PEG2000-DMG: 10% DSPC total lipid to NA molar ratio of 6 to 12.
# (§3) LNP preparations were formed by microfluidic mixing of the lipid and NA solutions using Precision Nanosystems NanoAssemblr Ignite series Instruments, according to the manufacturer's protocol.
# With the exception of LNPs comprising ionizable lipids 7-1, 7-2, 7-6, and 7-10, RNA concentration and encapsulation efficiency were determined by Ribogreen assay (BioTek Synergy LX plate reader). For LNPs comprising ionizable lipids 7-1, 7-2, 7-6, and 7-10, RNA concentration was determined by Qubit microRNA kit (for siRNA) or HS RNA kit (for mRNA) per manufacturer's instructions, and encapsulation efficiency was determined by measuring unlysed and lysed LNPs.
# [2] = LNP hydrodynamic diameter and polydispersity index by dynamic light scattering (DLS); format: physicochemical; settings: for Diameter (nm): hydrodynamic diameter of the LNP preparation with the ionizable lipid; for PDI: polydispersity index of the LNP preparation with the ionizable lipid
# Protocol: (§4) A 3:1 ratio of aqueous to organic solvent was maintained during mixing using differential flow rates. After mixing, LNP preparations were collected and diluted in TBS (approximately 7:1 v/v), and further buffer exchange was conducted using dialysis in TBS at 4° C. for 8 to 24 hours against a 20 kDa filter. After this initial dialysis, each individual LNP preparation was characterized via dynamic light scattering (DLS) to measure size and polydispersity. pKa of a subpopulation of LNP preparations was measured via TNS assay.
# DLS-LNP preparation hydrodynamic diameter and polydispersity index (PDI) was measured using high throughput dynamic light scattering (DLS) (DynaPro plate reader II, Wyatt). LNP preparations were diluted 1×PBS to an appropriate concentration and analyzed.
# [3] = test system: ALAS1 target site; assay: Base editing in liver by LNP-delivered ABE mRNA and sgRNA, targeted deep sequencing; format: in vivo; settings: LNP with the ionizable lipid, ABE mRNA + sgRNA targeting ALAS1 1:1; tail vein injection, Balb/c mice; 0.05 mg/kg; tissues four to six days post-dose
# Protocol: as §1, §2, §3, §4
# Male Balb/C mice aged approximately 8-12 weeks were used in the experiments described herein. […]
# Age-matched mice were also used to administer vehicle (1×TBS) via tail vein injection as a control. Four to six days post-dose, tissues including liver, spleen, and bone marrow were collected. Base editing was determined by performing targeted deep sequencing analysis at the ALAS1 target site using extracted genomic DNA. Genomic DNA was isolated and fragmented and adapter-ligated using the Nextera DNA Flex Library Prep Kit (Illumina) using the 96-well plate Nextera indexing primers (Illumina), according to the manufacturer's instructions. Library size and concentration was confirmed by Fragment Analyzer (Agilent) and analyzed for whole genome sequencing using an Illumina HiSeq.
SMILES,Encapsulation Efficiency (%) [1],Diameter (nm) [2],PDI [2],% Editing in Liver (0.05 mpk) [3]
"CC/C=C\CCCCOC(CCC(=O)OCC(COC(=O)CCCCCCC/C=C\C/C=C\CCCCC)COC(=O)CCC(CCCCCC)OC(=O)NCCN1CCCC1)OCCCC/C=C\CC (centres unmarked) [Compound 7-2, 3-((4,4-bis(((Z)-oct-5-en-1-yl)oxy)butanoyl)oxy)-2-(((4-(((2-(pyrrolidin-1-yl)ethyl)carbamoyl)oxy)decanoyl)oxy)methyl)propyl (9Z,12Z)-octadeca-9,12-dienoate]",97.8%,43.80 nm,0.04,–
"CC/C=C\CCCCOC(CCC(=O)OCC(COC(=O)CCCCCCC/C=C\C/C=C\CCCCC)COC(=O)CCC(CCCCCC)OC(=O)OCCCN(C)C)OCCCC/C=C\CC (centres unmarked) [Compound 7-3, 15-(((4,4-bis(((Z)-oct-5-en-1-yl)oxy)butanoyl)oxy)methyl)-9-hexyl-2-methyl-7,12-dioxo-6,8,13-trioxa-2-azahexadecan-16-yl (9Z,12Z)-octadeca-9,12-dienoate]",19.8%,85.72 nm,0.72,–
"CC/C=C\CCCCOC(CCC(=O)OCC(COC(=O)CCCCCCC/C=C\C/C=C\CCCCC)COC(=O)OCC(CCCCCC)OC(=O)NCCN1CCCC1)OCCCC/C=C\CC (centres unmarked) [Compound 7-5, 12-(((4,4-bis(((Z)-oct-5-en-1-yl)oxy)butanoyl)oxy)methyl)-6-hexyl-4,9-dioxo-1-(pyrrolidin-1-yl)-5,8,10-trioxa-3-azatridecan-13-yl (9Z,12Z)-octadeca-9,12-dienoate]",87.2%,78.39 nm,0.09,–
"CC/C=C\CCCCOC(CCC(=O)OCC(COC(=O)CCCCCCC/C=C\C/C=C\CCCCC)COC(=O)CCC(CCCCCC)OC(=O)OCCCN(CC)CC)OCCCC/C=C\CC (centres unmarked) [Compound 7-10, 16-(((4,4-bis(((Z)-oct-5-en-1-yl)oxy)butanoyl)oxy)methyl)-3-ethyl-10-hexyl-8,13-dioxo-7,9,14-trioxa-3-azaheptadecan-17-yl (9Z,12Z)-octadeca-9,12-dienoate]",88.2%,76.95 nm,0.09,–
"CC/C=C\CCCCOC(CCC(=O)OCC(COC(=O)CCCCCC(=O)OCCC(CCCCC)CCCCC)COC(=O)CCC(CC)OC(=O)NCCN1CCCC1)OCCCC/C=C\CC (centres unmarked) [Compound 7-24, 1-(3-((4,4-bis(((Z)-oct-5-en-1-yl)oxy)butanoyl)oxy)-2-(((4-(((2-(pyrrolidin-1-yl)ethyl)carbamoyl)oxy)hexanoyl)oxy)methyl)propyl) 7-(3-pentyloctyl) heptanedioate]",85.9%,84.01 nm,0.09,–
"CC/C=C\CCCCOC(CCC(=O)OCC(COC(=O)CCCCCC(=O)OCCC(CCCCC)CCCCC)COC(=O)CCC(CCCC)OC(=O)NCCN1CCCC1)OCCCC/C=C\CC (centres unmarked) [Compound 7-26, 1-(3-((4,4-bis(((Z)-oct-5-en-1-yl)oxy)butanoyl)oxy)-2-(((4-(((2-(pyrrolidin-1-yl)ethyl)carbamoyl)oxy)octanoyl)oxy)methyl)propyl) 7-(3-pentyloctyl) heptanedioate]",98.5%,60.05 nm,0.11,–
"CC/C=C\CCCCOC(CCC(=O)OCC(COC(=O)CCCCCCOC(=O)C(CCCC)CCCCCC)COC(=O)CCC(C)OC(=O)NCCN1CCCC1)OCCCC/C=C\CC (centres unmarked) [Compound 7-28, 12-(((4,4-bis(((Z)-oct-5-en-1-yl)oxy)butanoyl)oxy)methyl)-6-methyl-4,9,15-trioxo-1-(pyrrolidin-1-yl)-5,10,14-trioxa-3-azahenicosan-21-yl 2-butyloctanoate]",99.2%,74.80 nm,0.09,–
"CC/C=C\CCCCOC(CCC(=O)OCC(COC(=O)CCCCCCOC(=O)C(CCCC)CCCCCC)COC(=O)CCC(CCCCCC)OC(=O)NCCN(C)CC)OCCCC/C=C\CC (centres unmarked) [Compound 7-43, 3-((4,4-bis(((Z)-oct-5-en-1-yl)oxy)butanoyl)oxy)-2-(((7-((2-butyloctanoyl)oxy)heptanoyl)oxy)methyl)propyl 4-(((2-(ethyl(methyl)amino)ethyl)carbamoyl)oxy)decanoate]",89.2%,114.2 nm,0.11,–

# The next lines start with results.
Encapsulation Efficiency (%) [1],Diameter (nm) [2],PDI [2],SMILES,% Editing in Liver (0.05 mpk) [3]
97.5%,64.70 nm,0.14,"CCCCC/C=C\C/C=C\CCCCCCCC(=O)OCC(COC(=O)CCC(CCCCCC)OC(=O)NCCN1CCCC1)COC(=O)CCC(OCCCCCCCC)OCCCCCCCC (centres unmarked) [Compound 7-1, 3-((4,4-bis(octyloxy)butanoyl)oxy)-2-(((4-(((2-(pyrrolidin-1-yl)ethyl)carbamoyl)oxy)decanoyl)oxy)methyl)propyl (9Z,12Z)-octadeca-9,12-dienoate]",–
91.3%,85.01 nm,0.08,"CC/C=C\CCCCOC(CCC(=O)OCC(COC(=O)CCCCCCCOC(=O)C(CCCC)CCCCCC)COC(=O)CCC(CCCCCC)OC(=O)NCCN1CCCC1)OCCCC/C=C\CC (centres unmarked) [Compound 7-6, 3-((4,4-bis(((Z)-oct-5-en-1-yl)oxy)butanoyl)oxy)-2-(((8-((2-butyloctanoyl)oxy)octanoyl)oxy)methyl)propyl 4-(((2-(pyrrolidin-1-yl)ethyl)carbamoyl)oxy)decanoate]",–
95.0%,66.85 nm,0.06,"CC/C=C\CCCCOC(CCC(=O)OCC(COC(=O)CCCCCCOC(=O)C(CCCC)CCCCCC)COC(=O)CCC(CCCCCC)OC(=O)NCCN1CCCC1)OCCCC/C=C\CC (centres unmarked) [Compound 7-7, 3-((4,4-bis(((Z)-oct-5-en-1-yl)oxy)butanoyl)oxy)-2-(((7-((2-butyloctanoyl)oxy)heptanoyl)oxy)methyl)propyl 4-(((2-(pyrrolidin-1-yl)ethyl)carbamoyl)oxy)decanoate]",–
95.5%,62.8 nm,0.07,"CC/C=C\CCCCOC(CCC(=O)OCC(COC(=O)CCCCCCCOC(=O)C(CCCC)CCCCCC)COC(=O)OCC(CCCCCC)OC(=O)NCCN1CCCC1)OCCCC/C=C\CC (centres unmarked) [Compound 7-8, 12-(((4,4-bis(((Z)-oct-5-en-1-yl)oxy)butanoyl)oxy)methyl)-6-hexyl-4,9,15-trioxo-1-(pyrrolidin-1-yl)-5,8,10,14-tetraoxa-3-azadocosan-22-yl 2-butyloctanoate]",14.8%
99.1%,68.00 nm,0.10,"CCCCCCCCOC(CCC(=O)OCC(COC(=O)CCCCCCOC(=O)C(CCCC)CCCCCC)COC(=O)CCC(CCCCCC)OC(=O)NCCN1CCCC1)OCCCCCCCC (centres unmarked) [Compound 7-11, 3-((4,4-bis(octyloxy)butanoyl)oxy)-2-(((7-((2-butyloctanoyl)oxy)heptanoyl)oxy)methyl)propyl 4-(((2-(pyrrolidin-1-yl)ethyl)carbamoyl)oxy)decanoate]",13.2%
99.4%,84.26 nm,0.06,"CC/C=C\CCCCOC(CCC(=O)OCC(COC(=O)CCCCCCOC(=O)C(CCCC)CCCCCC)COC(=O)CCC(CC)OC(=O)NCCN1CCCC1)OCCCC/C=C\CC (centres unmarked) [Compound 7-20, 12-(((4,4-bis(((Z)-oct-5-en-1-yl)oxy)butanoyl)oxy)methyl)-6-ethyl-4,9,15-trioxo-1-(pyrrolidin-1-yl)-5,10,14-trioxa-3-azahenicosan-21-yl 2-butyloctanoate]",–
99.2%,83.43 nm,0.03,"CC/C=C\CCCCOC(CCC(=O)OCC(COC(=O)CCCCCCOC(=O)C(CCCC)CCCCCC)COC(=O)CCC(CCC)OC(=O)NCCN1CCCC1)OCCCC/C=C\CC (centres unmarked) [Compound 7-21, 12-(((4,4-bis(((Z)-oct-5-en-1-yl)oxy)butanoyl)oxy)methyl)-4,9,15-trioxo-6-propyl-1-(pyrrolidin-1-yl)-5,10,14-trioxa-3-azahenicosan-21-yl 2-butyloctanoate]",–
